Data as given in patent publication US8691822B2, “Dihydropteridinone derivatives, preparation process and pharmaceutical use thereof” (Jiangsu Hengrui Medicine Co., Ltd., priority 2009, dated 2014).

test system: human cervix cancer cells Hela; experiment: Plk Cell Proliferation Inhibition Assay (CCK8, 72 hours); assay type: cell-based; details: Hela cells highly expressing Plk
From the text: The following in vitro assay is to determine the activity of the compounds of the present invention for inhibiting the proliferation of human cervix cancer cells Hela, which has high expression of Plk.
The in vitro cellular assay described here is to determine the activity of the tested compounds for inhibiting the proliferation of cancer cells, which has high expression of Plk. The activity is represented by the […]. The general procedures for the assay are given as follows: The Hela cells highly expressing Plk (Institute of biochemistry and cell biology) were seeded to 96-well cell culture plate at a suitable concentration (exp 3000 cells/ml medium). The cells then were cultured in carbon dioxide (CO2) incubator and grew overnight. Then, the cell culture medium was replaced by fresh one with tested compounds added in it at serial concentrations (general 7 to 9 concentrations). Then the cells were put back to the incubator and cultured for continuous 72 hours. 72 hours later, the activity of the tested compounds for inhibiting the cell proliferation was determined by using CCK8 (cell counting kit-8, Dojindo, NO:CK04) method. IC50 value on tested cells were calculated by the data of inhibition rates of serial concentrations of the tested compounds.

| IC50 [nM] | SMILES |
| --- | --- |
| 6 | CC[C@@H]1C(=O)N(C)c2cnc(Nc3ccc(C(=O)NC[C@@H](CN4CCN(C)CC4)OC)c4c3OCC4)nc2N1C(C)C [Example 39, 7-[[(7R)-7-Ethyl-8-isopropyl-5-methyl-6-oxo-7H-pteridin-2-yl]amino]-N-[(2S)-2-methoxy-3-(4-methylpiperazin-1-yl)propyl]-2,3-dihydrobenzofuran-4-carboxamide] |
| 1 | CC[C@@H]1C(=O)N(C)c2cnc(Nc3ccc(C(=O)N[C@@H]4C[C@@H]5CN(C)C[C@@H]5C4)c4c3OCC4)nc2N1C1CCCC1 [Example 5] |
| 3 | CC[C@@H]1C(=O)N(C)c2cnc(Nc3ccc(C(=O)NC[C@H](O)CN4CCN(C)CC4)c4c3OCC4)nc2N1C1CCCC1 [Example 8, 7-[[(7R)-8-Cyclopentyl-7-ethyl-5-methyl-6-oxo-7H-pteridin-2-yl]amino]-N-[(2S)-2-hydroxy-3-(4-methylpiperazin-1-yl)propyl]-2,3-dihydrobenzofuran-4-carboxamide] |
| 0.8 | CC[C@@H]1C(=O)N(C)c2cnc(Nc3ccc(C(=O)N[C@H]4CC[C@@H](N5CCN(CC6CC6)CC5)CC4)c4c3OCC4)nc2N1C1CCCC1 [Example 12, 7-[[(7R)-8-Cyclopentyl-7-ethyl-5-methyl-6-oxo-7H-pteridin-2-yl]amino]-N-[(cis)-4-[4-(cyclopropylmethyl)piperazin-1-yl]cyclohexyl]-2,3-dihydrobenzofuran-4-carboxamide] |
| 2 | CC[C@@H]1C(=O)N(C)c2cnc(Nc3ccc(C(=O)NC4CCN(C)CC4)c4c3OCC4)nc2N1C(C)C [Example 22, 7-[[(7R)-7-Ethyl-8-isopropyl-5-methyl-6-oxo-7H-pteridin-2-yl]amino]-N-(1-methyl-4-piperidyl)-2,3-dihydrobenzofuran-4-carboxamide] |
| 7 | CC[C@@H]1C(=O)N(C)c2cnc(Nc3ccc(C(=O)NC[C@@H](CN4CCN(CC5CC5)CC4)OC)c4c3OCC4)nc2N1C(C)C [Example 36, N-[(2S)-3-[4-(Cyclopropylmethyl)piperazin-1-yl]-2-methoxy-propyl]-7-[[(7R)-7-ethyl-8-isopropyl-5-methyl-6-oxo-7H-pteridin-2-yl]amino]-2,3-dihydrobenzofuran-4-carboxamide] |
| 2 | CC[C@@H]1C(=O)N(C)c2cnc(Nc3ccc(C(=O)NC[C@@H](CN4CCN(C)CC4)OC)c4c3OCC4)nc2N1C1CCCC1 [Example 38, 7-[[(7R)-8-Cyclopentyl-7-ethyl-5-methyl-6-oxo-7H-pteridin-2-yl]amino]-N-[(2S)-2-methoxy-3-(4-methylpiperazin-1-yl)propyl]-2,3-dihydrobenzofuran-4-carboxamide] |
| 3 | CC[C@@H]1C(=O)N(C)c2cnc(Nc3ccc(C(=O)N[C@H]4CC[C@H](N5CCN(C)CC5)CC4)c4c3OCC4)nc2N1C1CCCC1 [Example 19, 7-[[(7R)-8-Cyclopentyl-7-ethyl-5-methyl-6-oxo-7H-pteridin-2-yl]amino]-N-[(trans)-4-(4-methylpiperazin-1-yl)cyclohexyl]-2,3-dihydrobenzofuran-4-carboxamide] |
| 3 | CC[C@@H]1C(=O)N(C)c2cnc(Nc3ccc(C(=O)NC[C@H](O)CN4CCN(CC5CC5)CC4)c4c3OCC4)nc2N1C1CCCC1 [Example 7, 7-[[(7R)-8-Cyclopentyl-7-ethyl-5-methyl-6-oxo-7H-pteridin-2-yl]amino]-N-[(2S)-3-[4-(cyclopropylmethyl)piperazin-1-yl]-2-hydroxy-propyl]-2,3-dihydrobenzofuran-4-carboxamide] |
| 2 | CC[C@@H]1C(=O)N(C)c2cnc(Nc3ccc(C(=O)NC[C@@H](CN4CCN(CC5CC5)CC4)OC)c4c3OCC4)nc2N1C1CCCC1 [Example 35, 7-[[(7R)-8-Cyclopentyl-7-ethyl-5-methyl-6-oxo-7H-pteridin-2-yl]amino]-N-[(2S)-3-[4-(cyclopropylmethyl)piperazin-1-yl]-2-methoxy-propyl]-2,3-dihydrobenzofuran-4-carboxamide] |
| 7 | CC[C@@H]1C(=O)N(C)c2cnc(Nc3ccc(C(=O)NC[C@@H](O)CN4CCN(C)CC4)c4c3OCC4)nc2N1C(C)C [Example 33, 7-[[(7R)-7-Ethyl-8-isopropyl-5-methyl-6-oxo-7H-pteridin-2-yl]amino]-N-[(2R)-2-hydroxy-3-(4-methylpiperazin-1-yl)propyl]-2,3-dihydrobenzofuran-4-carboxamide] |
| 0.7 | CC[C@@H]1C(=O)N(C)c2cnc(Nc3ccc(C(=O)N[C@H]4CC[C@H](N5CCN(CC6CC6)CC5)CC4)c4c3OCC4)nc2N1C1CCCC1 [Example 34, 7-[[(7R)-8-Cyclopentyl-7-ethyl-5-methyl-6-oxo-7H-pteridin-2-yl]amino]-N-[(trans)-4-[4-(cyclopropylmethyl)piperazin-1-yl]cyclohexyl]-2,3-dihydrobenzofuran-4-carboxamide] |
| 5 | CC[C@@H]1C(=O)N(C)c2cnc(Nc3ccc(C(=O)N[C@H]4C[C@@H]5CN(CC6CC6)C[C@@H]5C4)c4c3OC(C)(C)C4)nc2N1C1CCCC1 [Example 10, N-[(cis-endo)-2-(Cyclopropylmethyl)-3,3a,4,5,6,6a-hexahydro-1H-cyclopenta[c]pyrrol-5-yl]-7-[[(7R)-8-cyclopentyl-7-ethyl-5-methyl-6-oxo-7H-pteridin-2-yl]amino]-2,2-dimethyl-3H-benzofuran-4-carboxamide] |
| 1 | CC[C@@H]1C(=O)N(C)c2cnc(Nc3ccc(C(=O)N[C@H]4C[C@@H]5CN(C)C[C@@H]5C4)c4c3OCC4)nc2N1C1CCCC1 [Example 11, (cis-endo)-N-[2-Methyl-3,3a,4,5,6,6a-hexahydro-1H-cyclopenta[c]pyrrol-5-yl]-7-[[(7R)-8-cyclopentyl-7-ethyl-5-methyl-6-oxo-7H-pteridin-2-yl]amino]-2,3-dihydrobenzofuran-4-carboxamide] |
